The values below come from patent publication US8377967B2, “Piperidine derivative” (Nippon Zoki Pharmaceutical Co., Ltd., priority 2008, dated 2013).

Where a name gives a salt, the structure may show the parent alone.

Sequence of human histamine H1 receptor (P35367 whole entry): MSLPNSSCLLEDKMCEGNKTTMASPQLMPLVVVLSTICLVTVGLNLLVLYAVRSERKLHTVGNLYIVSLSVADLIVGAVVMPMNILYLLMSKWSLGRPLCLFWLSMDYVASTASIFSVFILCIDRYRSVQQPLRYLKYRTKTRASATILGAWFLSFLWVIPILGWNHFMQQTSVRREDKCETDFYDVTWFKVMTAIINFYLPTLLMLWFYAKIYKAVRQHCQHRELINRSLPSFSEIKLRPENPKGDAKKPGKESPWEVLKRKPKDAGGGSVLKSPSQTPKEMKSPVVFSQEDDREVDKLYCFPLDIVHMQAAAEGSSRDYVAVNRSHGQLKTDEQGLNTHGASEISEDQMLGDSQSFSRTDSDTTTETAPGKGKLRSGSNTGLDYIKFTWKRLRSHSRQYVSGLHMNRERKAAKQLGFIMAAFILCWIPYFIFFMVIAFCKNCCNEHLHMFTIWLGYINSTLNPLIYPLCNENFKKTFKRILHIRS

This test concerns the target human histamine H1 receptor (Homo sapiens, UniProt P35367). Put plainly: In vitro human histamine H1 receptor binding experiment ([3H]pyrilamine). To be noted: HEK293A cells stably expressing human histamine H1 receptor, [3H]pyrilamine 3 nmol/L, room temperature 60 minutes. The method, then:
Recombinant human histamine H1 receptor plasmid (prepared by Invitrogen) was transfected to HEK293A cells with Lipofectamine 2000 (manufactured by Invitrogen). Cells stably expressing human histamine H1 receptor were screened with Geneticin (manufactured by Invitrogen). The cells were continued to be cultured using a Dulbecco's Modified Eagle Medium containing 10% fetal bovine serum, 0.1 mmol/L MEM Non-Essential Amino Acids Solution, 2 mmol/L L-glutamine and 0.7 mg/mL Geneticin in a 5% CO2 incubator at 37° C. The cells stably expressing human histamine H1 receptor were prepared using 50 mmol/L Tris-HCl (pH 7.5) (hereinafter referred to as buffer) containing 0.1% bovine serum albumin, so as to have a concentration of 3×10^6 cells/mL, to give a cell sample preparation. Fifty microliters of the buffer, 50 μl of a test substance solution at various concentrations, and 50 μL of [^3H]pyrilamine solution (final concentration: 3 nmol/L) were added to each of the wells on the 96-well plate, and stirred, and 100 μL of the cell sample preparation was then added thereto (at a concentration of 3×10^5 cells/well) to initiate the reaction.
The cells were incubated at room temperature for 60 minutes, and then filtered on UniFilter GF/C plate (manufactured by Packard) immersed in 0.5% polyethyleneimine using a cell harvester (IH-110, manufactured by INNOTECH CORPORATION), to stop the reaction, and the plate was washed with the buffer. The plate after washing was sufficiently dried, and 20 μL of a scintillator (MaxiLight, manufactured by Hidex) was added thereto, and count per minute (cpm) was measured with a multi-labeled microplate reader (Plate Chameleo II, manufactured by Hidex). The nonspecific binding was cpm in a case where 30 μmol/L pyrilamine was added. The experiments were carried out at n=3, and at least repeated 3 times.
`CCOC(=O)c1cc2c(s1)C(=C1CCN(C)CC1)c1ccccc1OC2` [Compound 44, Ethyl[4-(1-methylpiperidin-4-ylidene)-4,10-dihydro-9-oxa-3-thiabenzo[f]azulen-2-yl]carboxylate hydrochloride] came in with an IC50 of 19.2 nM.

For the compound `CN1CCC(=C2c3ccccc3CCc3sc(CC(=O)NCCO)cc32)CC1` [Compound 63, N-(2-Hydroxyethyl)-{[4-(1-methylpiperidin-4-ylidene)-9,10-dihydro-4H-1-thiabenzo[f]azulen-2-yl]}acetamide], the 50% inhibitory concentration (IC50) amounted to 42 nM.

Compound `CCOC(=O)c1cc2c(s1)CCc1ccccc1C2=C1CCN(CC)CC1` [Compound 103, Ethyl[4-(1-ethylpiperidin-4-ylidene)-9,10-dihydro-4H-1-thiabenzo[f]azulen-2-yl]carboxylate hydrochloride] gave an IC50 of 35.4 nM.

The compound `CC(=O)NCc1cc2c(s1)CCc1ccccc1C2=C1CCN(C)CC1` [Compound 20, 2-Acetylaminomethyl-4-(1-methylpiperidin-4-ylidene)-9,10-dihydro-4H-1-thiabenzo[f]azulene hydrochloride] showed an IC50 of 15.2 nM.

`CCOC(=O)C=Cc1cc2c(s1)CCc1ccccc1C2=C1CCN(CC)CC1` [Compound 158, Ethyl 3-[4-(1-ethylpiperidin-4-ylidene)-9,10-dihydro-4H-1-thiabenzo[f]azulen-2-yl]acrylate] registered an IC50 of 47 nM.

In the case of `CCOC(=O)Nc1cc2c(s1)CCc1ccccc1C2=C1CCN(C)CC1` [Compound 75, 2-Ethoxycarbonylamino-4-(1-methylpiperidin-4-ylidene)-9,10-dihydro-4H-1-thiabenzo[f]azulene], the half-inhibitory concentration (IC50) came out at 74.8 nM.

`COCCNC(=O)c1cc2c(s1)CCc1ccccc1C2=C1CCN(C)CC1` [Compound 38, N-(2-Methoxyethyl)-[4-(1-methylpiperidin-4-ylidene)-9,10-dihydro-4H-1-thiabenzo[f]azulen-2-yl]carboxamide hydrochloride] had a concentration for half-maximal inhibition (IC50) of 70.8 nM.

The compound `CC(C(=O)NCCO)c1ccc2c(c1)C(=C1CCN(C)CC1)c1sccc1CO2` (stereo not shown) [Compound 64, N-(2-Hydroxyethyl)-{2-[4-(1-methylpiperidin-4-ylidene)-4,10-dihydro-9-oxa-3-thiabenzo[f]azulen-6-yl]}propionamide] yielded a half-inhibitory concentration (IC50) of 48.6 nM. The IC50 values of the last two compounds are within 1.5-fold of each other.

Take `CCCNC(=O)c1cc2c(s1)CCc1ccccc1C2=C1CCN(C)CC1` [Compound 85, N-Propyl-{[4-(1-methylpiperidin-4-ylidene)-9,10-dihydro-4H-1-thiabenzo[f]azulen-2-yl]}carboxamide]: the IC50 is 27.5 nM. Against the preceding compound, the IC50 is about 1.8-fold lower.

As to `CONC(=O)c1cc2c(s1)CCc1ccccc1C2=C1CCN(C)CC1` [Compound 40, N-Methoxy [4-(1-methylpiperidin-4-ylidene)-9,10-dihydro-4H-1-thiabenzo[f]azulen-2-yl]carboxamide hydrochloride], the IC50 stood at 52.1 nM.

Take `CC(CO)NC(=O)c1cc2c(s1)CCc1ccccc1C2=C1CCN(C)CC1` (stereo not shown) [Compound 71, N-(1-Hydroxyprop-2-yl)-{[4-(1-methylpiperidin-4-ylidene)-9,10-dihydro-4H-1-thiabenzo[f]azulen-2-yl]}carboxamide]: the concentration for half-maximal inhibition (IC50) was found to be 62 nM.

The compound `CN1CCC(=C2c3ccccc3CCc3sc(C(=O)NCCF)cc32)CC1` [Compound 77, N-(2-Fluoroethyl)-{[4-(1-methylpiperidin-4-ylidene)-9,10-dihydro-4H-1-thiabenzo[f]azulen-2-yl]}carboxamide] returned an IC50 of 37.8 nM.

`C=Cc1cc2c(s1)CCc1ccccc1C2=C1CCN(C)CC1` [Compound 112, 2-Vinyl-4-(1-methylpiperidin-4-ylidene)-9,10-dihydro-4H-1-thiabenzo[f]azulene] registered an IC50 of 1.94 nM.

As for `CCOCCN1CCC(=C2c3ccccc3CCc3sc(C(=O)OCC)cc32)CC1` [Compound 181, Ethyl 4-[1-(2-ethoxyethyl)piperidin-4-ylidene]-9,10-dihydro-4H-1-thiabenzo[f]azulene-2-carboxylate hydrochloride], the IC50 came to 13 nM.

In turn, `CC(OC(=O)OC1CCCCC1)OC(=O)c1cc2c(s1)CCc1ccccc1C2=C1CCN(C)CC1` (stereo not shown) [Compound 176, 1-Cyclohexyloxycarbonyloxyethyl 4-(1-methylpiperidin-4-ylidene)-9,10-dihydro-4H-1-thiabenzo[f]azulene-2-carboxylate hydrochloride] came in with an IC50 of 72.7 nM.

As to `CC(O)CNC(=O)c1cc2c(s1)CCc1ccccc1C2=C1CCN(C)CC1` (stereo not shown) [Compound 70, N-(2-Hydroxypropyl)-{[4-(1-methylpiperidin-4-ylidene)-9,10-dihydro-4H-1-thiabenzo[f]azulen-2-yl]}carboxamide], the IC50 stood at 93.3 nM.

In the case of `CN1CCC(=C2c3cc(CO)ccc3CCc3sccc32)CC1` [Compound 104, 6-(2-Hydroxymethyl)-4-(1-methylpiperidin-4-ylidene)-9,10-dihydro-4H-1-thiabenzo[f]azulene], the IC50 came to 4.8 nM. This IC50 lies about 19-fold lower than the previous one.

For the compound `CN1CCC(=C2c3ccccc3CCc3sc(C(=O)N(C)O)cc32)CC1` [Compound 74, N-Hydroxy-N-methyl-{[4-(1-methylpiperidin-4-ylidene)-9,10-dihydro-4H-1-thiabenzo[f]azulen-2-yl]}carboxamide], the IC50 turned out to be 70.9 nM.

Consider `CC(C(=O)O)c1ccc2c(c1)C(=C1CCN(C)CC1)c1sccc1CO2` (stereo not shown) [Compound 57, 2-[4-(1-Methylpiperidin-4-ylidene)-4,10-dihydro-9-oxa-3-thiabenzo[f]azulen-6-yl]propionic acid hydrochloride], for which the IC50 was 70.1 nM.

`CN1CCC(=C2c3ccccc3CCc3sc(C(=O)NO)cc32)CC1` [Compound 78, N-Hydroxy-{[4-(1-methylpiperidin-4-ylidene)-9,10-dihydro-4H-1-thiabenzo[f]azulen-2-yl]}carboxamide] displayed an IC50 of 65.1 nM.

Turning to `CCOC(=O)c1cc2c(s1)CCc1ccccc1C2=C1CCN(CCO)CC1` [Compound 105, Ethyl {4-[1-(2-hydroxyethyl)piperidin-4-ylidene]-9,10-dihydro-4H-1-thiabenzo[f]azulen-2-yl}carboxylate], the IC50 was found to be 50.2 nM.

The compound `COC(=O)Cc1ccc2c(c1)C(=C1CCN(CCNC(N)=O)CC1)c1sccc1CO2` [Compound 174, Methyl {4-[1-(2-ureidoethyl)piperidin-4-ylidene]-4,10-dihydro-9-oxa-3-thiabenzo[f]azulen-6-yl}acetate] yielded an IC50 of 11 nM. Compared with the last compound, the IC50 is about 4.6-fold lower.

In the case of `CCOC(=O)c1ccc2c(c1)C(=C1CCN(C)CC1)c1ccsc1CC2` [Compound 95, Ethyl[4-(1-methylpiperidin-4-ylidene)-9,10-dihydro-4H-1-thiabenzo[f]azulen-6-yl]carboxylate], the IC50 worked out at 14.9 nM.

`CCCN1CCC(=C2c3ccccc3CCc3sc(C(=O)OCC)cc32)CC1` [Compound 133, Ethyl 4-(1-propylpiperidin-4-ylidene)-9,10-dihydro-4H-1-thiabenzo[f]azulene-2-carboxylate hydrochloride] had an IC50 of 17 nM. The IC50 values of the last two compounds are within 1.5-fold of each other.

As to `CCOC(=O)COCCN1CCC(=C2c3ccccc3CCc3sc(C(=O)OCC)cc32)CC1` [Compound 110, Ethyl {4-[1-(2-ethoxycarbonylmethoxyethyl)piperidin-4-ylidene]-9,10-dihydro-4H-1-thiabenzo[f]azulen-2-yl}carboxylate hydrochloride], the IC50 is 23.4 nM.

Regarding `CON(C)C(=O)c1cc2c(s1)CCc1ccccc1C2=C1CCN(C)CC1` [Compound 84, N-Methyl-N-methoxy-{[4-(1-methylpiperidin-4-ylidene)-9,10-dihydro-4H-1-thiabenzo[f]azulen-2-yl]}carboxamide], the IC50 turned out to be 38.4 nM. Against the preceding compound, the IC50 is about 1.6-fold higher.

Take `C=CCNC(=O)c1cc2c(s1)CCc1ccccc1C2=C1CCN(C)CC1` [Compound 86, N-Allyl-{[4-(1-methylpiperidin-4-ylidene)-9,10-dihydro-4H-1-thiabenzo[f]azulen-2-yl]}carboxamide]: the IC50 came out at 21.2 nM.

The compound `N#CCCN1CCC(=C2c3ccccc3CCc3sc(C(=O)O)cc32)CC1` [Compound 94, {4-[1-(2-Cyanoethyl)piperidin-4-ylidene]-9,10-dihydro-4H-1-thiabenzo[f]azulen-2-yl}carboxylic acid] displayed an IC50 of 69 nM. This IC50 is about 3.3-fold higher than that of the compound before.

As to `OCCc1ccc2c(c1)C(=C1CCN(CCO)CC1)c1sccc1CO2` [Compound 122, 2-{4-[1-(2-Hydroxyethyl)piperidin-4-ylidene]-4,10-dihydro-9-oxa-3-thiabenzo[f]azulen-6-yl}ethanol], the IC50 was determined as 13.4 nM.

The compound `COC(=O)CCCc1ccc2c(c1)C(=C1CCN(C)CC1)c1sccc1CO2` [Compound 123, Methyl 4-[4-(1-methylpiperidin-4-ylidene)-4,10-dihydro-9-oxa-3-thiabenzo[f]azulen-6-yl]butyrate hydrochloride] gave an IC50 of 3.12 nM.

In turn, `CCOC(=O)Cc1ccc2c(c1)C(=C1CCN(C)CC1)c1sccc1CC2` [Compound 147, Ethyl[4-(1-methylpiperidin-4-ylidene)-9,10-dihydro-4H-3-thiabenzo[f]azulen-6-yl]acetate hydrochloride] registered an IC50 of 4.04 nM.
